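Test compounds were applied to cells in 96-well plates for 48 hours at 5 doses. The concentration for 50% growth inhibition is given as GI50. TGI marks complete inhibition of growth.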
Tests used:
Test in all cases: NCI-60 cell line screen, 48 h
[1] = system: OVCAR-3 ovarian
[2] = system: T-47D breast
[3] = system: SK-MEL-2 melanoma
[4] = system: SN12C renal
[5] = system: NCI-H226 lung
[6] = system: SF-539 CNS
[7] = system: SW-620 colon
[8] = system: EKVX NSCLC
[9] = system: CCRF-CEM leukemia
[10] = system: LOX IMVI melanoma
[11] = system: UO-31 renal
[12] = system: HOP-92 NSCLC
[13] = system: PC-3 prostate
[14] = system: SK-MEL-5 melanoma
[15] = system: SF-268 CNS
[16] = system: A498 renal
[17] = system: MALME-3M melanoma
[18] = system: HS 578T breast
[19] = system: COLO 205 colon
[20] = system: DU-145 prostate
[21] = system: NCI-H460 lung
[22] = system: HT29 colon
[23] = system: CAKI-1 renal
[24] = system: SK-MEL-28 melanoma
[25] = system: UACC-62 melanoma
[26] = system: HCT-15 colon
[27] = system: U251 CNS
[28] = system: A549 NSCLC
[29] = system: HL-60(TB) leukemia

## COC(=O)N1c2ccc3c(nc(Cc4ccccc4)n3[C@H]3CCC[C@H](C(=O)O)C3)c2CC[C@@H]1C
[1]
  TGI: > 100 µM
[2]
  GI50: 3.17 µM
  TGI: > 100 µM
[3]
  GI50: 34.3 µM
  TGI: > 100 µM
[4]
  GI50: 17.3 µM
  TGI: > 100 µM
[5]
  GI50: 14.1 µM
  TGI: > 100 µM
[6]
  GI50: 15.7 µM
  TGI: > 100 µM
[7]
  GI50: 46.4 µM
  TGI: > 100 µM
[8]
  GI50: 17.9 µM
  TGI: > 100 µM
[9]
  GI50: 6.55 µM
  TGI: > 100 µM
[10]
  GI50: 1.03 µM
  TGI: 30.2 µM
[11]
  GI50: 2.87 µM
  TGI: > 100 µM
[12]
  GI50: 1.62 µM
  TGI: 11.8 µM
[13]
  GI50: 5.68 µM
  TGI: > 100 µM
[14]
  GI50: 10.2 µM
  TGI: > 100 µM
[15]
  GI50: 27.7 µM
  TGI: > 100 µM
[16]
  GI50: 12.4 µM
  TGI: 52.7 µM
[17]
  GI50: 6.13 µM
  TGI: > 100 µM
[18]
  GI50: 3.25 µM
  TGI: > 100 µM
[19]
  GI50: 4.95 µM
  TGI: > 100 µM
[20]
  GI50: 93.6 µM
  TGI: > 100 µM
[21]
  GI50: 23.4 µM
  TGI: > 100 µM
[22]
  GI50: 5.44 µM
  TGI: > 100 µM
[23]
  GI50: 1.81 µM
  TGI: > 100 µM
[24]
  GI50: 13.2 µM
  TGI: > 100 µM
[25]
  GI50: 2.08 µM
  TGI: > 100 µM
[26]
  GI50: 16.2 µM
  TGI: > 100 µM
[27]
  GI50: 17.1 µM
  TGI: > 100 µM
[28]
  GI50: 27.6 µM
  TGI: > 100 µM
[29]
  GI50: 3.18 µM
  TGI: > 100 µM

— PubChem BioAssay (NCI)
